According to patent US6162811A, “Ellipticine compounds” (Adir et Compagnie, priority 1996, dated 2000):
Where a name gives a salt, the structure may show the parent alone. Read-outs that look alike come from different tables or passages of the source.

Columns and labels:
[1] = system: murine lung carcinoma, Lewis Lung Carcinoma (LLC); experiment: In vitro cytotoxicity, Microculture Tetrazolium Assay, LLC; assay type: cell-based; conditions: Mus musculus, 96 h
Method: (§1) A/In Vitro Activity: Cytotoxicity
(§2) Four cell lines were used:
1 murine lung carcinoma, Lewis Lung Carcinoma (LLC),
(§3) The cells are distributed onto microplates and exposed to the cytotoxic compounds. The cells are then incubated for 2 days (P388) or 4 days (LLC, KB-A1, KB-3-1).

[2] = system: human lung carcinoma NCI-H460; experiment: Anti-tumour activity in an orthotopic model of human lung carcinoma NCI-H460 implanted intrapleurally; assay type: in vivo, human (tumour line, in female Nude Balb/C mice); conditions: for toxicity of the dose: dihydrochloride
Method: 2/Anti-tumour Activity of the Compounds in an Orthotopic Model of Human Lung Carcinoma NCI-H460 Implanted Intrapleurally
The line NCI-H460, which originates from a human lung carcinoma of "not small cell" type, was supplied by the American Type Culture Collection (Frederick, USA). The cells are cultured in vitro in complete RPMI 1640 medium in Falcon flasks. On the day of the implantation, the cells are separated using trypsin, centrifuged and suspended in complete culture medium. The cells are then implanted in the pleural cavity of female Nude Balb/C mice (10^6 cells per mouse). The products are administered i.v. to groups of 6 animals on days 7 and 14 at the doses indicated. The anti-tumour activity is expressed in % T/C as defined above.
Table 3 lists the results obtained with the compound of Example 3 of the present Application (especially representative of the invention) and with the closest compound of the prior art as reference product.

[3] = system: KB-A1 (multi-drug resistant line induced by adriamycin); experiment: In vitro cytotoxicity, Microculture Tetrazolium Assay, KB-A1 (adriamycin-resistant); assay type: cell-based; conditions: Homo sapiens
Method: as §1, §2
the corresponding resistant line, KB-A1, the multi-drug resistance of which was induced by adriamycin (ADR).
as §3

murine leukaemia P388 = experiment: In vitro cytotoxicity, Microculture Tetrazolium Assay, P388; assay type: cell-based; conditions: Mus musculus
Method: as §1, §2, §3

[4] = system: human epidermoid carcinoma, KB-3-1; experiment: In vitro cytotoxicity, Microculture Tetrazolium Assay, KB-3-1; assay type: cell-based
Method: as §1, §2, §3

leukaemia P388 = experiment: Anti-tumour activity on leukaemia P388 (i.p.) in female BDF1 mice; assay type: in vivo, murine (female BDF1 mice)
Method: 1/Anti-tumour Activity of the Compounds on Leukaemia P388
The line P388 (murine leukaemia) was supplied by the National Cancer Institute (Frederick, USA). The tumour cells (10^6 cells) were injected on day 0 into the peritoneal cavity of female BDF1 mice (Iffa-Credo, France) weighing from 18 to 20 g (groups of 6 or 7 animals).
The products were administered intravenously, at the doses indicated, on day 1 or on days 1, 5 and 9.
The anti-tumour activity is expressed in % T/C: [formula]
The number of animals surviving 60 days (long-term survival) is indicated.
By way of example, Table 2 gives the results obtained with the compound of Example 32 which is especially representative of the invention.

[5] = LLC, 4 days incubation, read-out: IC50
[6] = i.v. on days 7 and 14, 56.5 mg/kg
[7] = i.v. on days 7 and 14, 80 mg/kg
[8] = i.v. on days 7 and 14, 113 mg/kg
[9] = 96 h, KB-A1, 4 days incubation, read-out: IC50
[10] = 48 h, P388, 2 days incubation, read-out: IC50
[11] = 96 h, KB-3-1, 4 days incubation, read-out: IC50

Cc1c2ccnc(C(=O)NCCN(C)C)c2cc2c3cc(OC(=O)CCCC(=O)O)ccc3n(C)c12.Cl.Cl [Example 3, 1-[(2-Dimethylaminoethyl)aminocarbonyl]-5,6-dimethyl-9-(4-carboxybutanoyloxy)-6H-pyrido-[4,3-b]carbazole dihydrochloride] was tested, and the IC50 [1, 5] was 43.2 nM, the “increase in survival of the animals” value ([2]; administered twice at 160 mg/kg i.v.) was 81% and the tolerability ([2]; even at a strong dose, i.v.) was “very well tolerated”. For the same compound, the therapeutic index ([2]; i.v.) was “excellent”, the anti-tumour activity ([2]; i.v. on days 7 and 14) was “active” and the T/C % [2, 6] was 133%. For the same compound, the T/C % [2, 7] was 147%, the T/C % [2, 8] was 174% and the T/C % ([2]; i.v. on days 7 and 14, 160 mg/kg) was 181%. For the same compound, the IC50 [3, 9] was 923 nM, the IC50 (murine leukaemia P388; [10]) was 7.1 nM and the IC50 [4, 11] was 74.2 nM.
In the case of CC(=O)Oc1ccc2c(c1)c1cc3c(C(=O)NCCN(C)C)nccc3c(C)c1n2C [Example 2, 1-[(2-Dimethylaminoethyl)aminocarbonyl]-5,6-dimethyl-9-acetoxy-6H-pyrido-[4,3-b]carbazole], the IC50 [1, 5] is reported as 13.5 nM, the IC50 [3, 9] is reported as 758 nM and the IC50 (murine leukaemia P388; [10]) is reported as 5.8 nM. It also gave an IC50 [4, 11] of 36.1 nM.
With COc1cccc2c1C(=O)c1c(O)c3c(c(O)c1C2=O)C[C@@](O)(C(=O)CO)C[C@@H]3O[C@H]1C[C@H](N)[C@H](O)[C@H](C)O1 [ADR, adriamycin, reference compound] the IC50 [1] was 19.3 nM, the IC50 ([3]; KB-A1, 96 h) was 6690 nM and the IC50 (murine leukaemia P388; P388, 48 h) was 18.1 nM. For the same compound, the IC50 ([4]; KB 3-1, 96 h) was 17.3 nM.
In the case of Cc1c2ccnc(C(=O)NCCN(C)C)c2cc2c3cc(O)ccc3n(C)c12 [Reference product, 1[(2dimethylaminoethyl)aminocarbonyl5,6-dimethyl-9-hydroxy-6H-pyrido-[4,3]carbazoledihydrochloride, reference compound], the “mouse dead during the treatments” value ([2]; 113 mg/kg i.v., days 7 and 14) is reported as 1 mouse, the “toxicity of the dose” value ([2]; 113 mg/kg i.v., days 7 and 14) is reported as “toxic dose” and the “toxicity of the dose” value ([2]; 113 mg/kg i.v., days 7 and 14, listed as reference product) is reported as “toxic”. It also gave a T/C % ([2]; i.v. on days 7 and 14, 40 mg/kg) of 126%, a T/C % [2, 6] of 145% and a T/C % [2, 7] of 156%. It also gave a T/C % [2, 8] of 186%.
For Cc1c2ccnc(C(=O)NCCN(C)C)c2cc2c3cc(OC(=O)CCCCC(=O)O)ccc3n(C)c12 [Example 32, 1-[(2-Dimethylaminoethyl)aminocarbonyl]-5,6-dimethyl-9-(5-carboxypentanoyloxy)-6H-pyrido[4,3-b]carbazole], the tolerability (leukaemia P388; even at a very high dose, i.v.) was “well tolerated”, the “weight loss and premature death” value (leukaemia P388; even at a very high dose, i.v.) was “neither significant weight loss nor premature death” and the general toxicity (leukaemia P388; i.v.) was “very low general toxicity”. For the same compound, the therapeutic index (leukaemia P388; i.v.) was “excellent therapeutic index”, the T/C % (leukaemia P388; i.v. on D1, 20 mg/kg) was 125% and the T/C % (leukaemia P388; i.v. on D1, 40 mg/kg) was 154%. It also gave a T/C % (leukaemia P388; i.v. on D1, 80 mg/kg) of 186%, a T/C % (leukaemia P388; i.v. on D1, 160 mg/kg) of 233% and a T/C % (leukaemia P388; i.v. on D1, 240 mg/kg) greater than 600%. For the same compound, the “number of animals surviving 60 days (cured)” value (“number” below) (leukaemia P388; i.v. on D1, 240 mg/kg) was 4/7, the T/C % (leukaemia P388; i.v. on D1, 320 mg/kg) was greater than 600% and the “number” value (leukaemia P388; i.v. on D1, 320 mg/kg) was 6/7. For the same compound, the T/C % (leukaemia P388; i.v. on D1, 5 and 9, 10 mg/kg) was 137%, the T/C % (leukaemia P388; i.v. on D1, 5 and 9, 20 mg/kg) was 171% and the T/C % (leukaemia P388; i.v. on D1, 5 and 9, 40 mg/kg) was 236%. For the same compound, the T/C % (leukaemia P388; i.v. on D1, 5 and 9, 80 mg/kg) was greater than 600%, the “number” value (leukaemia P388; i.v. on D1, 5 and 9, 80 mg/kg) was 6/7 and the T/C % (leukaemia P388; i.v. on D1, 5 and 9, 160 mg/kg) was greater than 600%. The “number” value (leukaemia P388; i.v. on D1, 5 and 9, 160 mg/kg) was 6/7, the IC50 [1, 5] was 3.5 nM and the IC50 [3, 9] was 758 nM. For the same compound, the IC50 (murine leukaemia P388; [10]) was 5.1 nM and the IC50 [4, 11] was 40.6 nM.
